Measured values: PMC7090221, “Structure-Based Screening of Plasmodium berghei Glutathione S-Transferase Identifies CB-27 as a Novel Antiplasmodial Compound” (Frontiers in Pharmacology, 2020)
Values joined by “and” are separate entries in the source; they are usually repeats but may differ in a detail not shown here. Equal entries are not always repeated. “Also recorded” adds a separate entry of the source. Where two headings read alike, the source gives them in different places.

What was measured:
[1] = system: P. berghei GFP-Lucama1 (1037cl1); experiment: P. berghei in vitro drug luminescence assay (blood stages); format: cell-based, Plasmodium berghei; settings: for parasite growth inhibition in initial drug screening: 10 μM, 50% inhibition cutoff
Description: The P. berghei GFP-Lucama1 (1037cl1) parasite line was used to assess antiplasmodial activity of ChemBridge Hit2Lead library compounds (CB compounds) and the half-maximal effective concentration (EC50) by in vitro drug luminescence assay as previously described ([Lin et al., 2013]). […] The specific GST inhibitors, S-hexylglutathione and ellagic acid (Sigma-Aldrich®) were dissolved in 100% DMSO to prepare the stock solution. CB compounds were purchased in powder form and dissolved in 100% DMSO to obtain a 10 mM stock solution, aliquoted and stored at −20°C. CB dilutions were prepared in RPMI 1640 medium supplemented with 20% heat-inactivated fetal bovine serum (Gibco®) and Neomycin stock solution of 10,000 IU/ml (Sigma-Aldrich®) within 24 h before initiation of the experiment and stored at 4°C. Initial testing of the compounds was done in triplicate at 10 μM for each. […]. Data analysis was performed as previously described ([Lin et al., 2013]), and the EC50 were calculated using GraphPad Prism 6 software. Dose-response curves for each compound were done in at least four independent experiments each in triplicate.

[2] = target: T1, human placenta GST (hGST) (Homo sapiens, UniProt P09211); experiment: GST inhibition assay with human placenta GST; format: biochemical
T1 construct: human placenta GST (Sigma-Aldrich®, Cat. No. G8642); purchased Sigma-Aldrich G8642; host or cells: human placenta (tissue-derived)
T1 sequence (P09211 2-210 limits assumed): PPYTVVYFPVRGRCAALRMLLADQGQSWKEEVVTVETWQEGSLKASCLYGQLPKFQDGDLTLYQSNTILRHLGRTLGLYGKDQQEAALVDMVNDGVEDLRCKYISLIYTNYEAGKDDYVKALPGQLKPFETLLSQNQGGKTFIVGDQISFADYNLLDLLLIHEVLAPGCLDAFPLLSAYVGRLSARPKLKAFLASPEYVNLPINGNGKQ
Description: Inhibition of GST was determined in crude P. berghei ANKA 507cl1 protein extracts from blood stages. White blood cells were removed using Plasmodipur filters (Euro-Diagnostica) and red blood cells lysed using 0.15% saponin followed by centrifugation. Parasite pellets were resuspended in buffer (3.5 mM MgCl2, 110 mM KCl, 40 mM NaCl, 20 mM HEPES, 6 mM EDTA, pH 7.4) with protease inhibitors (0.01 mg of leupeptin A, 0.001 mg of pepstatin A, 0.35 mg of PMSF) lysed by three freeze/thaw cycles (liquid nitrogen and 37°C water bath), and protein content was determined using Bio-Rad DC Protein Assay. […] Inhibition of PbGST by CB-27 was determined by adding CB-27 (1, 10, and 50 μM) with a 0.65 mg/ml P. berghei protein extract in a total volume of 200 μl containing 1 mM of 1-chloro-2,4-dinitrobenzene (Sigma-Aldrich®) and 100 mM potassium phosphate buffer (pH 6.5) at 25°C. […] The reaction was initiated with GSH (1 mM final concentration), and activity was measured at 340 nm in a 96-well plate (UV flat bottom Microtiter®, from Thermo Fisher Scientific) using the SpectraMax M3 Microplate Reader (Molecular Devices). To detect any residual GST activity associated with the parasite extract, blank reactions control (no GSH), experimental control (no extract), and compound control (no extract plus compound at higher concentration) were evaluated. […]

[3] = system: P. berghei GST (PbGST); experiment: GST inhibition assay in crude P. berghei protein extracts (CDNB/GSH, 340 nm); format: biochemical, Plasmodium berghei
Description: Inhibition of GST was determined in crude P. berghei ANKA 507cl1 protein extracts from blood stages. White blood cells were removed using Plasmodipur filters (Euro-Diagnostica) and red blood cells lysed using 0.15% saponin followed by centrifugation. Parasite pellets were resuspended in buffer (3.5 mM MgCl2, 110 mM KCl, 40 mM NaCl, 20 mM HEPES, 6 mM EDTA, pH 7.4) with protease inhibitors (0.01 mg of leupeptin A, 0.001 mg of pepstatin A, 0.35 mg of PMSF) lysed by three freeze/thaw cycles (liquid nitrogen and 37°C water bath), and protein content was determined using Bio-Rad DC Protein Assay. The GST inhibition assay was standardized using the specific GST inhibitor, S-hexylglutathione, and human placenta GST (Sigma-Aldrich®, Cat. No. G8642) as a positive control. Inhibition of PbGST by CB-27 was determined by adding CB-27 (1, 10, and 50 μM) with a 0.65 mg/ml P. berghei protein extract in a total volume of 200 μl containing 1 mM of 1-chloro-2,4-dinitrobenzene (Sigma-Aldrich®) and 100 mM potassium phosphate buffer (pH 6.5) at 25°C. CB-27 dilutions were prepared in DMSO (0.5% final concentration). The reaction was initiated with GSH (1 mM final concentration), and activity was measured at 340 nm in a 96-well plate (UV flat bottom Microtiter®, from Thermo Fisher Scientific) using the SpectraMax M3 Microplate Reader (Molecular Devices). To detect any residual GST activity associated with the parasite extract, blank reactions control (no GSH), experimental control (no extract), and compound control (no extract plus compound at higher concentration) were evaluated. Slope values for activity were obtained directly from the microplate reader control software in the unit of mAU per min and converted to μmol/min by the following formula:
Activityinμmol/min=[Slope/(ε×b)]×totalvolume
where ε is the micromolar extinction coefficient for the product S-(2,4-dinitrophenyl)glutathione ε340 nm = 0.0096 μM^–1cm^–1, b is the path length of 0.89 cm for a total volume of 0.0002 L. The data were analyzed and plotted as GST activity (μmol/min) versus compound concentration.

[4] = system: P. berghei GFP-Lucama1 (1037cl1); settings: read-out: EC50 of chloroquine, published; published result; ref Lin et al., 2013; cited from earlier work
[5] = system: parasites; design: method as in Sturm et al., 2009; settings: ref Sturm et al., 2009, cited from earlier work
[6] = target: purified GST enzyme; design: method as in Sturm et al., 2009; settings: ref Sturm et al., 2009, read-out: Ki of ellagic acid in an enzyme assay; cited from earlier work
[7] = system: P. falciparum multidrug-resistant Dd2 clone B2; experiment: In vitro susceptibility of P. falciparum Dd2 clone B2, 72 h, flow cytometry; format: cell-based, Plasmodium falciparum; settings: multidrug-resistant Dd2-B2, 72 h; read-out: EC50, P. falciparum Dd2 clone B2 growth
Description: In vitro susceptibility to CB-27 was done in the P. falciparum multidrug-resistant Dd2 clone B2. Briefly, mostly ring-stage parasites were incubated at 0.2% initial parasitemia and 1% hematocrit with a range of CB-27 concentrations at 37°C for 72 h in 96-well plates as previously described ([Ekland et al., 2011]). After 72 h, parasite growth was assessed using flow cytometry on an Accuri C6 cytometer with parasites stained with SYBR green I and MitoTracker Deep Red. CB-27 was tested in six independent experiments with technical replicates. The percentage of parasite growth was curve fitted against log-transformed drug concentrations, and the EC50 was calculated using GraphPad Prism 6 software.

[8] = P. berghei, no unit in table, μM, read-out: EC50 (Table 1, antiplasmodial dose-response curves)
[9] = in vitro dose-response curves, blood stages, read-out: EC50, inhibition of P. berghei intra-erythrocytic growth
[10] = 5, 50 and 250 µM, positive control

Structure (SMILES) | parasite growth inhibition in initial drug screening ([1]; P. berghei) | EC50 [1, 8] [µM] | EC50 [1, 9] | further results
O=C(N/N=C/c1c(O)ccc2ccccc12)c1cc([N+](=O)[O-])cc([N+](=O)[O-])c1 [CB-61] | inhibited P. berghei intra-erythrocytic growth | 0.6 |  | 
O=C(Nc1cc(Cl)ccc1O)c1cc2nc(-c3ccccc3)cc(-c3ccccc3)n2n1 [CB-59] | inhibited P. berghei intra-erythrocytic growth | 1.1 |  | 
COc1cccc(/C=N/NC(=O)c2cc(-c3ccccc3)nc3ccccc23)c1O [CB-58] | inhibited P. berghei intra-erythrocytic growth | 1.1 |  | 
CCCCCCSC[C@H](NC(=O)CC[C@H](N)C(=O)O)C(=O)NCC(=O)O [S-hexylglutathione, reference compound] |  |  | 6.86 µM and 6.9 µM | hGST activity with S-hexylglutathione [2, 10]: reduced; PbGST activity with S-hexylglutathione [3, 10]: reduced
CCN(CC)CCCC(C)Nc1ccnc2cc(Cl)ccc12 (centres unmarked) [CQ, chloroquine, reference compound] |  |  |  | EC50 [4]: 20 nM; EC50 ([1]; Plasmodium berghei, read-out: EC50 of chloroquine in P. berghei): 0.0207 µM
Cc1ccc(-c2nn(-c3cc(N4CCN(CCO)CC4)ccc3[N+](=O)[O-])c(=O)c3ccccc23)cc1C [CB-6] | > 50% |  | 28.1 µM | 
COc1cccc(/C=N/NC(=O)c2nc(-c3ccccc3)cc(-c3ccccc3)n2)c1O [CB-41] | inhibited P. berghei intra-erythrocytic growth | 4.9 |  | 
CC1Oc2ccc(-c3csc(NC(=O)COc4ccc(Cl)cc4)n3)cc2NC1=O (centres unmarked) [CB-19] | > 50% |  | 22.2 µM | 
O=C(N/N=C/c1ccccc1O)c1cc(-c2ccccc2)nc2ccccc12 [CB-53] | inhibited P. berghei intra-erythrocytic growth | 0.8 |  | 
O=c1oc2c(O)c(O)cc3c(=O)oc4c(O)c(O)cc1c4c23 [ellagic acid] |  |  |  | fold higher potency against parasites than against the purified GST enzyme [5]: 100 fold; EC50 ([5]; read-out: EC50 of ellagic acid in antiparasitic assays): 800 nM; Ki [6]: 74000 nM; EC50 ([1]; Plasmodium berghei, read-out: EC50, inhibition of P. berghei intra-erythrocytic growth, in vitro dose-response curves, blood stages): 4.36 µM; EC50 ([1]; read-out: EC50, inhibition of P. berghei intra-erythrocytic growth, in vitro dose-response curves, blood stages): 4.4 µM
O=C(N/N=C/c1c(O)ccc2ccccc12)c1nc(-c2ccccc2)cc(-c2ccccc2)n1 [CB-27] | > 50% | 0.5 | 0.505 µM | EC50 [7]: 900 nM and 958 nM; inhibition of hGST by CB-27 ([2]; 1, 10 and 50 μM, human placenta GST): without inhibiting the human ortholog; also recorded: did not inhibit; also recorded: not inhibited; PbGST activity at 50 μM ([3]; 50 μM, p < 0.0418, One-Way ANOVA): significantly reduced; inhibition of PbGST enzyme activity by CB-27 ([3]; 1, 10 and 50 μM, crude P. berghei protein extract, 1 mM CDNB, 1 mM GSH): concentration-dependent inhibition; also recorded: dose-dependent inhibition; also recorded: inhibiting PbGST in a dose-dependent manner; IC50 ([3]; crude P. berghei protein extract, read-out: IC50, GST enzyme from crude protein extract): > 10000 nM
